Laboratory results as given in publication PMC11424460, “Inhibitory effects of calcium channel blockers nisoldipine and nimodipine on ivacaftor metabolism and their underlying mechanism” (Frontiers in Pharmacology, 2024).
Entries after “also recorded” stand apart in the source; their conditions may differ. Read-outs that look alike come from different tables or passages of the source.

Assays:
[1] = target: ivacaftor metabolism in rat liver microsomes (RLM); assay: IC50 and inhibition mechanism (Lineweaver-Burk, Ki, αKi) on ivacaftor metabolism in RLM; assay type: in vitro ADME; conditions: for IC50: ivacaftor 8.8 μM; for Inhibition type: Lineweaver-Burk plots
Description: (§1) This system was made up of 200 μL of incubation solution consisting of 0.3 mg/mL RLM or 0.4 mg/mL HLM, 1.0 mM NADPH, pH 7.4 PBS and ivacaftor. […] In HLM, a range of concentrations (0.1, 1, 2, 4, 12, 25 μM) of ivacaftor was used to determine Km. The solution should be pre-incubated at 37°C for 5 min before adding NADPH. Following the addition of NADPH, the mixture should be incubated for 40 min. The reaction should then be stopped at −80°C. After the enzyme reaction was completed, 20 μL of 500 ng/mL IS solution and 400 μL acetonitrile (protein precipitating agent) were added to the mixture. The mixture was vortexed for 2 min and then centrifuged at 13,000 rpm for 10 min. After centrifugation, 100 μL of the supernatant was quantified using UPLC-MS/MS.
(§2) The IC50 values for the inhibitory effects of nisoldipine and nimodipine on ivacaftor in HLM were also determined. […] The final concentration of DMSO in the culture system is less than 1%. […] The incubation and post-treatment procedures were consistent with the enzyme incubation of ivacaftor described above Section 2.2.
(§3) The incubation and post-treatment procedures were consistent with the enzyme incubation of ivacaftor described above Section 2.2.
(§4) Km values, IC50 values, Lineweaver-Burk plots and mean plasma concentration-time curves were all generated using GraphPad Prism 9.0 software (GraphPad Software, Inc., United States). Pharmacokinetic parameters of ivacaftor and M1 were obtained by analyzing them using the non-compartmental model of Drug and Statistics (DAS) (version 3.0, Mathematical Pharmacology Professional Committee of China, Shanghai, China), and a one-way ANOVA was performed to compare the pharmacokinetics of the three groups of rats using SPSS (version 26.0; SPSS Inc., Chicago, IL, United States). A P-value <0.05 was considered statistically significant. Data were represented as mean ± standard deviation (SD).

[2] = system: ivacaftor metabolism in rat liver microsomes (RLM); assay: Screening of 79 drugs (100 μM) for inhibition of ivacaftor metabolism in RLM incubation; assay type: in vitro ADME; conditions: each drug 100 μM, 0.3 mg/mL RLM
Description: The supernatants were centrifuged at 100,000 × g for 1 h, and the pellets were resuspended with cold […] PBS. Protein concentrations were determined by Bradford Protein Assay Kit (Thermo Scientific, Waltham, MA, United States).
This system was made up of 200 μL of incubation solution consisting of 0.3 mg/mL RLM or 0.4 mg/mL HLM, 1.0 mM NADPH, pH 7.4 PBS and ivacaftor. […] The solution should be pre-incubated at 37°C for 5 min before adding NADPH. Following the addition of NADPH, the mixture should be incubated for 40 min. The reaction should then be stopped at −80°C. After the enzyme reaction was completed, 20 μL of 500 ng/mL IS solution and 400 μL acetonitrile (protein precipitating agent) were added to the mixture. The mixture was vortexed for 2 min and then centrifuged at 13,000 rpm for 10 min. After centrifugation, 100 μL of the supernatant was quantified using UPLC-MS/MS.
Each drug was used at a concentration of 100 μM as the inhibitor. The culture system was 200 μL and included 0.3 mg/mL RLM, 1.0 mM NADPH, PBS, ivacaftor, and inhibitor. The reaction procedure was the same as the enzyme reaction mentioned above Section 2.2.

[3] = target: ivacaftor metabolism in human liver microsomes (HLM); assay: IC50 and inhibition mechanism (Lineweaver-Burk, Ki, αKi) on ivacaftor metabolism in HLM; assay type: in vitro ADME; conditions: for Inhibition type: Lineweaver-Burk plots; for IC50: ivacaftor 6.8 μM
Description: as §1, §2, §3, §4

CYP3A = conditions: strong CYP3A inhibitor co-administered; FDA report; ref Garg et al., 2019; cited from earlier work
[4] = parameters: method as in Schneider et al., 2015; conditions: ref Schneider et al., 2015; cited from earlier work
[5] = Pharmacokinetics of ivacaftor and M1 in Sprague-Dawley rats with or without nisoldipine or nimodipine; assay type: in vivo; conditions: male, rat, plasma, po, ivacaftor 10 mg/kg gavage, nisoldipine 1 mg/kg or nimodipine 10 mg/kg 30 min before
Description: The animal study was supervised and approved by Ethics Committee of The First Affiliated Hospital of Wenzhou Medical University (WYYY-IACUC-AEC-2023-065). 12 Sprague-Dawley male rats (220 ± 20 g) were purchased from the First Affiliated Hospital of Wenzhou Medical University and randomly divided into three groups: group A (control), group B (nisoldipine), and group C (nimodipine), with 4 rats in each group. A 12 h fast with no restriction on water intake was conducted prior to the experiment. […] Group B were received nisoldipine (1 mg/kg) via gavage, while group C were received nimodipine (10 mg/kg) via the same method. Group A were given the same volume of CMC-Na to serve as a control. […] Before UPLC-MS/MS analysis, supernatant was mixed with 300 μL acetonitrile and 10 μL IS (500 ng/mL), and then vortexed for 2 min and centrifuged at 13,000 rpm for 10 min at 4°C. Finally, a 100 μL sample of supernatant was collected for UPLC-MS/MS analysis. […] SPSS Inc., Chicago, IL, United States). […] Data were represented as mean ± standard deviation (SD).

[6] = parameters: method as in Harbeson et al., 2017; conditions: male rats, gavage of 10 mg/kg ivacaftor alone, PEG400 as solvent; ref Harbeson et al., 2017; cited from earlier work
[7] = system: rat liver microsomes (RLM); conditions: read-out: Km (Michaelis-Menten constant); RLM 0.3 mg/mL, 40 min incubation
Description: as §1
as §4, with “Data were represented as mean ± standard deviation (SD).” left out

[8] = system: human liver microsomes (HLM); conditions: read-out: Km (Michaelis-Menten constant); HLM 0.4 mg/mL, 40 min incubation
Description: as §1
as §4, with “Data were represented as mean ± standard deviation (SD).” left out

SMILES: CCOC(=O)C1=C(C)NC(C)=C(C(=O)OCC)C1c1ccccc1/C=C/C(=O)OC(C)(C)C [Lacidipine]
- IC50 [1]: 2.17 µM
- Metabolic rate (Mean ± SD, % of control) [2]: 14.13 ± 1.07 % of control

SMILES: CCOC(=O)C1=C(C)NC(C)=C(C(=O)OC)C1c1cccc(Cl)c1Cl (stereo not shown) [Felodipine]
- IC50 [1]: 15.6 µM
- Metabolic rate (Mean ± SD, % of control) [2]: 13.47 ± 1.71 % of control

SMILES: COC(=O)C1=C(C)NC(C)=C(C(=O)OCC(C)C)C1c1ccccc1[N+](=O)[O-] (stereo not shown) [Nisoldipine]
- Ki [3]: 3.92 µM
- α [3]: 9.03
- Inhibition type [3]: Non-competitive inhibition and competitive inhibition
- Inhibition type ([3]; listed as nisoldipine): mixed inhibition; also recorded: mixed-type of non-competitive and competitive inhibition
- IC50 [3]: 9.1 µM
- IC50 ([3]; listed as nisoldipine): < 10 µM
- α ([3]; listed as nisoldipine): 35.40
- Ki [1]: 3.35 µM
- α [1]: 2.53
- Inhibition type [1]: Non-competitive inhibition and competitive inhibition
- Inhibition type ([1]; listed as nisoldipine): mixed inhibition; also recorded: mixed-type of non-competitive and competitive inhibition
- IC50 [1]: 6.55 µM
- IC50 ([1]; listed as nisoldipine): < 10 µM
- α ([1]; listed as nisoldipine): 8.48
- Metabolic rate (Mean ± SD, % of control) [2]: 7.29 ± 4.05 % of control

SMILES: CC(=O)N1CCN(c2ccc(OCC3COC(Cn4ccnc4)(c4ccc(Cl)cc4Cl)O3)cc2)CC1 (stereo not shown) [ketoconazole]
- increase in AUC of ivacaftor when combined with the inhibitor (CYP3A): 8.5 fold

SMILES: CC(C)N(CCCCOCC(=O)NS(C)(=O)=O)c1cnc(-c2ccccc2)c(-c2ccccc2)n1 [Selexipag]
- Metabolic rate (Mean ± SD, % of control) [2]: 28.78 ± 2.21 % of control

SMILES: CN/C(=N/CCSCc1nc[nH]c1C)NC#N [Cimetidine]
- Metabolic rate (Mean ± SD, % of control) [2]: 62.59 ± 8.46 % of control

SMILES: CCC(C)n1ncn(-c2ccc(N3CCN(c4ccc(OCC5COC(Cn6cncn6)(c6ccc(Cl)cc6Cl)O5)cc4)CC3)cc2)c1=O (stereo not shown) [itraconazole]
- increase in AUC of ivacaftor when combined with the inhibitor (CYP3A): 15.6 fold

SMILES: O=c1cc(-c2ccccc2)oc2cc(O)cc(O)c12 [Chrysin]
- Metabolic rate (Mean ± SD, % of control) [2]: 74.50 ± 20.73 % of control

SMILES: C=C[C@H]1C[N@@]2CC[C@H]1C[C@@H]2[C@@H](O)c1ccnc2ccc(OC)cc12 [Quinidine]
- Metabolic rate (Mean ± SD, % of control) [2]: 37.44 ± 4.20 % of control

SMILES: CCOc1ccc(Cc2cc([C@]34OC[C@](CO)(O3)[C@@H](O)[C@H](O)[C@H]4O)ccc2Cl)cc1 [PF-04971729]
- Metabolic rate (Mean ± SD, % of control) [2]: 92.72 ± 3.41 % of control

SMILES: O=C(O[C@@H]1Cc2c(O)cc(O)cc2O[C@@H]1c1cc(O)c(O)c(O)c1)c1cc(O)c(O)c(O)c1 [(-)-Epigallocatechin gallate]
- Metabolic rate (Mean ± SD, % of control) [2]: 72.21 ± 13.75 % of control

SMILES: O=C(O)Cc1ccc(O)cc1 [2-(4-Hydroxyphenyl) acetic acid]
- Metabolic rate (Mean ± SD, % of control) [2]: 101.32 ± 0.94 % of control

SMILES: CC(C)(C)c1cc(C(C)(C)C)c(NC(=O)c2c[nH]c3ccccc3c2=O)cc1O [Ivacaftor, N-(2,4-Di-tert-butyl-5-hydroxyphenyl)-4-oxo-1,4-dihydroquinoline-3-carboxamide]
- plasma protein binding [4]: > 97%
- AUC(0-inf) ([5]; n = 4): 9360 ng·h/mL
- AUC(0-t) ([5]; n = 4): 8410 ng·h/mL
- Cmax ([5]; n = 4): 676 ± 242 ng/mL
- CL/F ([5]; n = 4, read-out: CLz/F of ivacaftor (converted)): 18.2 mL/min/kg
- half-life ([5]; n = 4, read-out: t1/2 of ivacaftor (converted)): 12.2 ± 4.8 h
- AUC(0–24h) of ivacaftor [6]: 22,177 ng/mL*h
- Km [7]: 8.8 µM
- Km [8]: 6.8 µM

SMILES: CC(C)=CCC/C(C)=C/C=C/C(C)=C/C=C/C(C)=C/C=C/C=C(C)/C=C/C=C(C)/C=C/C=C(\C)CCC=C(C)C [Lycopene]
- Metabolic rate (Mean ± SD, % of control) [2]: 7.16 ± 0.77 % of control

SMILES: COCCOC(=O)C1=C(C)NC(C)=C(C(=O)OC(C)C)C1c1cccc([N+](=O)[O-])c1 (stereo not shown) [Nimodipine]
- Ki [3]: 5.87 µM
- Inhibition type [3]: Competitive inhibition
- IC50 [3]: 7.15 µM
- IC50 ([3]; listed as nimodipine): < 10 µM
- Ki [1]: 3.26 µM
- Inhibition type [1]: Competitive inhibition
- IC50 [1]: 4.57 µM
- IC50 ([1]; listed as nimodipine): < 10 µM
- Metabolic rate (Mean ± SD, % of control) [2]: 7.84 ± 0.43 % of control

SMILES: CN1C(C(=O)Nc2ccccn2)=C(O)c2sc(Cl)cc2S1(=O)=O [Lornoxicam]
- Metabolic rate (Mean ± SD, % of control) [2]: 79.39 ± 3.06 % of control

SMILES: CCCNCC(O)COc1ccccc1C(=O)CCc1ccccc1 (stereo not shown) [Propafenone]
- Metabolic rate (Mean ± SD, % of control) [2]: 54.95 ± 0.92 % of control

SMILES: CC(=O)Oc1cc2c(s1)CCN(C(C(=O)C1CC1)c1ccccc1F)C2 (stereo not shown) [Prasugrel]
- Metabolic rate (Mean ± SD, % of control) [2]: 31.93 ± 1.49 % of control

SMILES: CCCCc1oc2ccccc2c1C(=O)c1cc(I)c(OCCN(CC)CC)c(I)c1 [Amiodarone]
- Metabolic rate (Mean ± SD, % of control) [2]: 5.73 ± 0.85 % of control

SMILES: CCCCc1oc2ccc(NS(C)(=O)=O)cc2c1C(=O)c1ccc(OCCCN(CCCC)CCCC)cc1 [Dronedarone]
- Metabolic rate (Mean ± SD, % of control) [2]: 4.76 ± 0.94 % of control
